Where two headings read alike, the source gives them in different places.
Assays:
[1] = test system: Bacillus thuringiensis israelensis; test: Direct effects of NF-kB signaling inhibitors on growth of B. thuringiensis israelensis cultures (OD600); format: cell-based; conditions: 10 μg/mL; LB medium; shaken overnight at room temperature
Text: (§1) The effects of NF-kB signaling inhibitors were further assessed on growth of bacterial entomopathogen cultures. Two bacterial entomopathogens were used in the present example. The Gram-positive bacterium B. thuringiensis israelensis was obtained from Carolina Biological Supply (Burlington, N.C., USA). This bacterium was investigated due to its potential activity against bed bugs when ingested. The Gram-negative bacterium P. entomophila was obtained from the German Collection of Microorganisms and Cell Cultures (DSMZ, Braunschweig, Germany). Stocks of these bacteria were grown overnight in Luria-Bertani (LB) medium on a shaker at room temperature.
(§2) To determine if the inhibitors had any direct impact on the growth of entomopathogenic bacteria prior to their administration in vivo, cultures of each bacterium were inoculated into LB medium and individual inhibitors were added to the cultures at a final concentration of 10 μg/mL. Cultures containing equal volumes of DMSO diluent served as controls. After shaking overnight at room temperature, growth of bacteria in the presence of inhibitors was quantified by measuring optical density of the cultures at 600 nm (OD600) on a spectrophotomer. OD600 values of cultures containing inhibitors were then normalized to DMSO controls. Three replicates were conducted with each inhibitor and growth was compared to controls (set at 1) using a one-sample t-test.

Cimex lectularius [2] = test: Three-day survivorship of bed bugs fed P. entomophila alone or combined with NF-kB signaling inhibitors; format: in vivo; conditions: for effect on mortality during P. entomophila infection: 10 μg/mL inhibitor in blood meal with P. entomophila, three days, relative to bacterium alone; for mortality at 10 µg/mL: Cimex lectularius, P. entomophila combined with 10 μg/mL inhibitor in blood meal
Protocol: (§3) For the following non-limiting Examples, the Cincinnati SRL strain of Cimex lectularius was used for the population of bed bugs. This strain was derived from a population of individuals collected by technicians from Sierra Research Laboratories, Inc. (Modesto, Calif.) in 2007 and has been maintained under laboratory conditions since this time. Colonies were maintained at the University of South Dakota in plastic jars containing corrugated cardboard harborages at 28 +/−1° C. and 60-70% relative humidity on a 12:12 photoperiod. The colonies were fed aseptically collected defibrinated rabbit blood (Hemostat Laboratories, Dixon, Calif.) once per week using an artificial membrane system (Hemotek Ltd., Blackburn, United Kingdom).
The effect of the combination treatment of NF-kB signaling inhibitors and bacterial entomopathogens on bed bug resistance to the bacterial entomopathogens was analyzed. To determine if NF-kB signaling inhibitors could reduce resistance to orally provisioned entomopathogenic bacteria, cultures of each bacterium were grown overnight by shaking at room temperature. The following day, cultures of P. entomophila were standardized to an OD600 value of 2.3 (3×10^8 colony forming units/mL) and cultures of B. thuringiensis isralensis were standardized to an OD600 value of 2.2 (7×10^7 colony forming units/mL), based on their overnight growth across replicates. P. entomophila was then further diluted 1:100 in defibrinated rabbit blood, whereas B. thuringiensis israelensis was further diluted 1:50 in defibrinated rabbit blood due to its generally lower virulence. The evaluated inhibitors or DMSO diluent were added to the blood meal containing diluted bacteria to a final concentration of 10 ug/mL. The groups of bed bugs fed DMSO diluent in blood were included as controls. Groups of bed bugs consisting of roughly even numbers of adult male and female bed bugs that had not blood fed for at least seven days were provided access to treated blood meals using the artificial membrane system (Hemotek Ltd.) until fully engorged. Short-term mortality was then monitored over a period of three days. Three independent biological replicates with 10-14 insects per group were carried out and cumulative survival curves were compared using the Gehan-Breslow-Wilcoxon test.

Cimex lectularius [3] = test: Three-day survivorship of bed bugs fed NF-kB signaling inhibitors combined with B. thuringiensis israelensis; format: in vivo; conditions: 10 μg/mL inhibitor in blood meal with bacteria; three days; Gehan-Breslow test p=0.86
Protocol: as §3
The effect of the combination treatment of NF-kB signaling inhibitors and bacterial entomopathogens on bed bug resistance to the bacterial entomopathogens was analyzed. To determine if NF-kB signaling inhibitors could reduce resistance to orally provisioned entomopathogenic bacteria, cultures of each bacterium were grown overnight by shaking at room temperature. […] The evaluated inhibitors or DMSO diluent were added to the blood meal containing diluted bacteria to a final concentration of 10 ug/mL. […] Short-term mortality was then monitored over a period of three days. […]

Pseudomonas entomophila = test: Direct effects of NF-kB signaling inhibitors on growth of P. entomophila cultures (OD600); format: cell-based; conditions: 10 μg/mL; LB medium; shaken overnight at room temperature
Text: as §1, §2

Cimex lectularius [4] = test: Estimation of P. entomophila load in vivo in bed bugs (CFU/insect); conditions: 10 μg/mL inhibitor with P. entomophila in blood meal, 24 hours post-infection
Protocol: The bacterial load of entomopathogen was further analyzed to determine whether enhanced mortality during P. entomophila infection was associated with increased bacterial load (reduced resistance). For this analysis, adult male bed bugs that had not fed for at least seven days were provided access to blood meals containing P. entomophila with or without 10 μg/mL of IKK16 using the artificial membrane system (Hemotek Ltd.) until fully engorged. The two treatments were prepared as described in Example 3. After 24 hours, live and dead bed bugs from each infected treatment group were collected. Individual insects were surface sterilized by rinsing with 10% bleach and 70% ethanol and homogenized in sterile phosphate buffered saline (PBS). Homogenates were then serial diluted in PBS and plated on LB agar plates to estimate the load of P. entomophila bacteria expressed as colony forming units (CFU) per insect after 24 hours of incubation at 28° C. Because culturable bed bug commensals in the gut are minimal and slow growing, this methodology allows for the specific quantification of P. entomophila. Two independent biological replicates were conducted (15 individual insects examined per treatment group in total). The insects in each treatment were further subdivided into dead and live categories for analysis. […]

Cimex lectularius [5] = test: Toxicity of NF-kB signaling inhibitors fed as lone agents to bed bugs (seven-day survivorship); format: in vivo; conditions: 5 μg/mL or 10 μg/mL in blood meal; 7 days; chi-square test p=0.54
Protocol: as §3
The bed bugs were fed four individual small molecule inhibitors of NF-kB signaling (BMS345541, IKK16, IMD0354, Takinib) alone or in combination with two different bacterial entomopathogens (Pseudomonas entomophila and Bacillus thuringiensis israelensis). […] The effects on both bed bug mortality and bacterial growth were assessed.
The toxicity of NF-kB signaling inhibitors was analyzed by feeding the inhibitors as lone agents to bed bugs. In particular, the four individual small molecule inhibitors of NF-kB signaling (BMS345541, IKK16, IMD0354, Takinib) were analyzed. […] Mortality was then monitored regularly over a period of seven days. […]

Rhodnius prolixus = conditions: cited from earlier work

| Structure (SMILES) | growth of B. thuringiensis israelensis relative to DMSO control (OD600) [1] | effect on mortality during P. entomophila infection (Cimex lectularius [2]) | effect on mortality during infection with B. thuringiensis (Cimex lectularius [3]) | growth of P. entomophila relative to DMSO control (OD600) (Pseudomonas entomophila) | mortality at 10 µg/mL (Cimex lectularius [2]; 24 h, read-out: mortality at day 1) [%] | mortality at 10 µg/mL (Cimex lectularius [2]; 48 h, read-out: mortality at day 2) [%] | mortality at 10 µg/mL (Cimex lectularius [2]; 72 h, read-out: mortality at day 3) [%] | effect on tolerance (mortality with lower bacterial loads) in vivo (Cimex lectularius [4]) | P. entomophila load in live bed bugs versus live counterparts not treated with the inhibitor (Cimex lectularius [4]; ANOVA p=0.021) | direct toxicity to bed bugs (mortality relative to DMSO controls) (Cimex lectularius [5]) | expression of antimicrobial peptides (Rhodnius prolixus) | mortality during both bacterial and parasitic infections (Rhodnius prolixus) |
| --- | --- | --- | --- | --- | --- | --- | --- | --- | --- | --- | --- | --- |
| Cc1ccc2nc(NCCN)c3ncc(C)n3c2c1 [BMS345541, N1-(1,8-dimethylimidazo[1,2-a]quinoxalin-4-yl)ethane-1,2-diamine] | did not affect the growth | little to no effect | little to no effect | did not affect the growth |  |  |  |  |  |  |  |  |
| O=C(c1ccc(Nc2nccc(-c3cc4ccccc4s3)n2)cc1)N1CCC(N2CCCC2)CC1 [IKK16, (4-((4-(Benzo[b]thiophen-2-yl)pyrimidin-2-yl)amino)phenyl)(4-(pyrrolidin-1-yl)piperidin-1-yl)methanone] | inhibited the growth | significantly increased |  | did not affect the growth | 74.3 | 80 | 82.9 | did not affect tolerance | higher loads |  |  |  |
| O=C(Nc1cc(C(F)(F)F)cc(C(F)(F)F)c1)c1cc(Cl)ccc1O [IMD0354, N-(3,5-bis(trifluoromethyl)phenyl)-5-chloro-2-hydroxybenzamide] | inhibited the growth |  |  | inhibited the growth |  |  |  |  |  | not directly toxic | suppressed expression | increased mortality |
| CCCn1/c(=N/C(=O)c2cccc(C(N)=O)c2)[nH]c2ccccc21 [Takinib, 3-N-(1-propylbenzimidazol-2-yl)benzene-1,3-dicarboxamide] | did not affect the growth | little to no effect | little to no effect | did not affect the growth |  |  |  |  |  |  |  |  |
